{"source": "patent US20210212998A1", "about": "“Combinations of Tie-2 Activators and Prostaglandins and Uses Thereof” (Aerpio Pharmaceuticals, Inc., priority 2020, published 2021)", "key": {"[1]": {"system": "human subjects with OHT/POAG", "assay": "Phase 1b trial: conjunctival hyperemia, safety and tolerability", "assay_type": "in vivo", "method": "A randomized, double-masked Phase 1b trial was designed to assess safety, tolerability, and efficacy of a Tie-2 activator (Compound 1) as an adjunctive therapy to prostaglandins for treatment of ocular hypertension (OHT) or primary open angle glaucoma (POAG). The study assessed the effects of increasing concentrations of Compound 1 dosed topically as eye drops (5 mg/mL QD, 15 mg/mL QD, 40 mg/mL QD, and 40 mg/mL BID) in 4 sequential cohorts of 12 subjects, randomized 3:1 to receive Compound 1 or placebo, for 7 days. Conjunctival hyperemia and IOP were assessed at 0 (pre-dose), 2 hours, 4 hours, and 8 hours post-dose on Day −1 (baseline), Day 1 (first day of Compound 1 dosing), and Day 7 (last day of dosing).\nIn this study, 36 human subjects with OHT/POAG and baseline IOP measurements between 17 and 27 mmHg (inclusive) undergoing once-daily prostaglandin therapy were recruited. Subjects were randomized 3:1 to once-daily, 40 mg/mL Compound 1 (27 subjects), or placebo (9 subjects) in the morning (AM) for 7 days while continuing once-daily prostaglandin therapy in the evening (PM). Compound 1 (40 mg/mL) was a sodium salt formulated in 15% HPβCD and 1% mannitol. The Compound 1 ophthalmic solution was adjusted to a pH of 6.5-7.5 with 1N hydrochloric acid and/or IN sodium hydroxide prior to sterile filtration. Placebo was the same solution as the vehicle for the Compound 1 ophthalmic solution. Each dose of study medication (Compound 1 or placebo) was administered as one drop (30 μL) of dosing solution per eye in each subject. Compound 1 was administered to each eye (except on Day 1 and 2 in Cohort 1 in which only the right eye received Compound 1) by the topical ocular route using a dropper bottle to deliver eye drops. Compound 1 was administered for 7 days as a single morning dose daily. […]\nIOP was measured pre-dose (0 hr), 2 hrs, 4 hrs, and 8 hrs post-dose on Day −1, Day 1, and Day 7. […] Visual field testing, conjunctival hyperemia and IOP were also assessed. IOP was assessed by Goldmann applanation tonometry in both eyes at screening, baseline, and during treatment as indicated. […]"}, "[2]": {"system": "patients with mean baseline intraocular pressure of 24-25 mmHg", "settings": "cited from earlier work"}, "[3]": {"settings": "cited from earlier work"}}, "note": "Read-outs that look alike come from different tables or passages of the source.", "data": [{"smiles": "COC(=O)N[C@@H](Cc1ccccc1)C(=O)N[C@@H](Cc1ccc(NS(=O)(=O)O)cc1)c1csc(-c2cccs2)n1", "note": "[Compound 1]", "values": [{"measurement": "change in hyperemia over baseline", "setting": "[1]; 2 hours post-dose", "result": "small increase"}, {"measurement": "tolerability of topical ocular administration", "setting": "[1]; 7 day study", "result": "well-tolerated"}, {"measurement": "time by which hyperemia returned to baseline levels", "setting": "[1]; post-dose", "result": "≤ 8", "unit": "h"}]}, {"smiles": "CC(C)OC(=O)CCC/C=C\\C[C@@H]1[C@@H](CC[C@@H](O)CCc2ccccc2)[C@H](O)C[C@@H]1O", "note": "[Latanoprost, latanoprost]", "values": [{"measurement": "reductions in IOP", "setting": "[2]; baseline IOP 24-25 mmHg, treated for 6 months, multi-center randomized controlled trials", "result": "6-8 mmHg"}, {"measurement": "start of reduction of the intraocular pressure after administration", "setting": "[2]; human, in vivo", "result": "3 to 4", "unit": "h"}, {"measurement": "time at which the maximum effect is reached", "setting": "[2]; human, in vivo", "result": "8 to 12", "unit": "h"}, {"measurement": "distribution volume", "setting": "[3]; humans", "result": "0.16 ± 0.02", "unit": "L/kg"}, {"measurement": "administered dose recovered in the urine", "setting": "[3]; intravenous dosing", "result": "~98", "unit": "%"}, {"measurement": "administered dose recovered in the urine", "setting": "[3]; topical dosing", "result": "about 88%"}]}, {"smiles": "O=C(O)CCC/C=C\\C[C@@H]1[C@@H](CC[C@@H](O)CCc2ccccc2)[C@H](O)C[C@@H]1O", "note": "[acid of latanoprost]", "values": [{"measurement": "t1/2, elimination from human plasma", "setting": "[3]; after both intravenous and topical administration", "result": 17, "unit": "min"}, {"measurement": "Systemic clearance", "setting": "[3]; human", "result": "approximately 7 mL/min/kg"}]}]}
